Reference: US20230312605A1, “PYRROLO[2,1-F][1,2,4]TRIAZINES AND PREPARATION AND USES THEREOF” (BioSplice Therapeutics, Inc., priority 2021, published 2023)

What follows are molecules tested against recombinant DYRK1A kinase (Homo sapiens (Human), UniProt Q13627) (assay: DYRK1A kinase assay (Ser/Thr 18 peptide Z-lyte FRET assay)). Details: recombinant DYRK1A 0.25 µg/mL, ATP 15 µM, Ser/Thr peptide 18 4 µM, one hour at room temperature; table head prints EC50, method says IC50.
Format: biochemical
Outline: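 Z-lyte FRET format: 1 h room-temperature reaction of 15 µM ATP, 4 µM Ser/Thr 18 peptide and 0.25 µg/mL recombinant human DYRK1A, in duplicate over 11 compound concentrations up to 10 µM. IC50 was derived by non-linear regression of percent phosphorylation calculated from coumarin/fluorescein emission ratios.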

Molecule	EC50 [nM]
c1cn2cc(-c3ccn4nc(NC5CC6(CNC6)C5)ncc34)cnc2n1 [Compound 1732, 5-(Imidazo[1,2-a]pyrimidin-6-yl)-N-(2-azaspiro[3.3]heptan-6-yl)pyrrolo[2,1-f][1,2,4]triazin-2-amine]	13
C[C@@H](Nc1ncc2c(-c3cnc4nccn4c3)ccn2n1)C1CC1 [Compound 231, (R)-N-(1-Cyclopropylethyl)-5-(imidazo[1,2-a]pyrimidin-6-yl)pyrrolo[2,1-f] [1,2,4]triazin-2-amine]	28
Cc1nc2ccc(-c3ccn4nc(N[C@@H]5CCN(C6COC6)C[C@@H]5F)ncc34)nc2n1CC(F)F [Compound 1954, 5-(3-(2,2-Difluoroethyl)-2-methyl-3H-imidazo[4,5-b]pyridin-5-yl)-N-((3 S,4R)-3-fluoro-1-(oxetan-3-yl)piperidin-4-yl)pyrrolo[2,1-f] [1,2,4]triazin-2-amine]	6
Cc1nc2ccc(-c3ccn4nc(NC[C@H](C)O)ncc34)nc2n1CC(F)F [Compound 1832, (S)-1-((5-(3-(2,2-Difluoroethyl)-2-methyl-3H-imidazo[4,5-b]pyridin-5-yl)pyrrolo [2,1-f] [1,2,4]triazin-2-yl)amino)propan-2-ol]	6
Cc1nc2ncc(-c3ccn4nc(NC5CCOCC5)ncc34)cc2n1CC(F)F [Compound 706, 5-(1-(2,2-Difluoroethyl)-2-methyl-1H-imidazo[4,5-b]pyridin-6-yl)-N-(tetrahydro-2H-pyran-4-yl)pyrrolo[2,1-f][1,2,4]triazin-2-amine]	5
Cc1nc2ccc(-c3ccn4nc(N[C@@H]5CCOC[C@H]5O)ncc34)nc2n1CC(F)F [Compound 1866, (3S,4R)-4-((5-(3-(2,2-Difluoroethyl)-2-methyl-3H-imidazo[4,5-b]pyridin-5-yl)pyrrolo[2,1-f][1,2,4]triazin-2-yl)amino)tetrahydro-2H-pyran-3-ol]	33
Cc1nc2ncc(-c3ccn4nc(N[C@H]5CCN(C)C[C@H]5F)ncc34)cc2n1CC(F)F [Compound 1887, 5-(1-(2,2-Difluoroethyl)-2-methyl-1H-imidazo[4,5-b]pyridin-6-yl)-N-((3R,4S)-3-fluoro-1-methylpiperidin-4-yl)pyrrolo[2,1-f][1,2,4]triazin-2-amine]	31
c1cnc2ccc(-c3ccn4nc(NC5CC6(CNC6)C5)ncc34)cc2c1 [Compound 1747, 5-(Quinolin-6-yl)-N-(2-azaspiro[3.3]heptan-6-yl)pyrrolo[2,1-f][1,2,4]triazin-2-amine]	3
CCO[C@H]1C[C@@H](Nc2ncc3c(-c4cnc5nccn5c4)ccn3n2)C1 [Compound 242, N-(cis-3-Ethoxycyclobutyl)-5-(imidazo[1,2-a]pyrimidin-6-yl)pyrrolo[2,1-f] [1,2,4]triazin-2-amine]	5
Cc1nc2ccc(-c3ccn4nc(N[C@H]5CC[C@@](C)(O)CC5)ncc34)nc2n1CC(F)(F)F [Compound 1868, cis-1-Methyl-4-((5-(2-methyl-3-(2,2,2-trifluoroethyl)-3H-imidazo[4,5-b]pyridin-5-yl)pyrrolo[2,1-f] [1,2,4]triazin-2-yl)amino)cyclohexan-1-ol]	9
COc1ncnc2ccc(-c3ccn4nc(NCC(C)(C)F)ncc34)cc12 [Compound 1423, N-(2-Fluoro-2-methylpropyl)-5-(4-methoxyquinazolin-6-yl)pyrrolo[2,1-f] [1,2,4]triazin-2-amine]	149
Cc1nc2nc(-c3ccn4nc(N[C@H]5CC[C@@H](OC(F)(F)F)CC5)ncc34)cnc2n1CC(F)F [Compound 1971, 5-(1-(2,2-Difluoroethyl)-2-methyl-1H-imidazo[4,5-b]pyrazin-5-yl)-N-(cis-4-(trifluoromethoxy)cyclohexyl)pyrrolo[2,1-f][1,2,4]triazin-2-amine]	379
Cc1nc2ccc(-c3ccn4nc(N[C@@H]5CN(C6COC6)C[C@@H]5F)ncc34)nc2n1CC(F)F [Compound 1945, 5-(3-(2,2-Difluoroethyl)-2-methyl-3H-imidazo[4,5-b]pyridin-5-yl)-N-((3R,4S)-4-fluoro-1-(oxetan-3-yl)pyrrolidin-3-yl)pyrrolo [2,1-f][1,2,4]triazin-2-amine]	1
Cc1nc2ccc(-c3ccn4nc(NC5CCN(S(C)(=O)=O)CC5)ncc34)nc2n1CC(F)F [Compound 1861, 5-(3-(2,2-Difluoroethyl)-2-methyl-3H-imidazo[4,5-b]pyridin-5-yl)-N-(1-(methylsulfonyl)piperidin-4-yl)pyrrolo[2,1-f][1,2,4]triazin-2-amine]	7
Cc1nc2ncc(-c3ccn4nc(NC5CCN(CC(F)F)CC5)ncc34)cc2n1CC(F)F [Compound 1882, 5-(1-(2,2-Difluoroethyl)-2-methyl-1H-imidazo[4,5-b]pyridin-6-yl)-N-(1-(2,2-difluoroethyl)piperidin-4-yl)pyrrolo[2,1-f][1,2,4]triazin-2-amine]	4
Cc1nc2ccc(-c3ccn4nc(N[C@H]5CC[C@@H](OC(F)(F)F)CC5)ncc34)nc2n1CC(F)F [Compound 1792, 5-(3-(2,2-Difluoroethyl)-2-methyl-3H-imidazo[4,5-b]pyridin-5-yl)-N-(cis-4-(trifluoromethoxy)cyclohexyl)pyrrolo[2,1-f][1,2,4]triazin-2-amine]	26

Molecule	EC50 [nM]
Cc1nc2ncc(-c3ccn4nc(NC5CCN(C6COC6)CC5)ncc34)cc2n1CC(F)F [Compound 1889, 5-(1-(2,2-Difluoroethyl)-2-methyl-1H-imidazo[4,5-b]pyridin-6-yl)-N-(1-(oxetan-3-yl)piperidin-4-yl)pyrrolo[2,1-f][1,2,4]triazin-2-amine]	7
Cc1nc2ccc(-c3ccn4nc(N[C@H]5C[C@H](N6CCOCC6)C5)ncc34)nc2n1CC(F)F [Compound 1893, 5-(3-(2,2-Difluoroethyl)-2-methyl-3H-imidazo[4,5-b]pyridin-5-yl)-N-(trans-3-morpholinocyclobutyl)pyrrolo[2,1-f][1,2,4]triazin-2-amine]	5
O[C@H]1C[C@@H](Nc2ncc3c(-c4ccc5ncccc5c4)ccn3n2)C1 [Compound 1723, cis-3-((5-(Quinolin-6-yl)pyrrolo[2,1-f][1,2,4]triazin-2-yl)amino)cyclobutan-1-ol]	4
COC[C@H]1C[C@H](Nc2ncc3c(-c4ccc5nccnc5c4)ccn3n2)C1 [Compound 1377, N-(trans-3-(Methoxymethyl)cyclobutyl)-5-(quinoxalin-6-yl)pyrrolo[2,1-f] [1,2,4]triazin-2-amine]	8
Cc1nc2ncc(-c3ccn4nc(N[C@@H]5CCN(C)C[C@@H]5F)ncc34)cc2n1CC(F)F [Compound 1884, 5-(1-(2,2-Difluoroethyl)-2-methyl-1H-imidazo[4,5-b]pyridin-6-yl)-N-((3S,4R)-3-fluoro-1-methylpiperidin-4-yl)pyrrolo[2,1-f][1,2,4]triazin-2-amine]	7
COCC(=O)N[C@]1(C)C[C@@H](Nc2ncc3c(-c4ccc5nccnc5c4)ccn3n2)C1 [Compound 1985, 2-Methoxy-N-(trans-1-methyl-3-((5-(quinoxalin-6-yl)pyrrolo[2,1-f][1,2,4]triazin-2-yl)amino)cyclobutyl)acetamide]	3
Cc1nc2ccc(-c3ccn4nc(N[C@@H]5CCCOC5)ncc34)nc2n1CC(F)F [Compound 1863, (R)-5-(3-(2,2-Difluoroethyl)-2-methyl-3H-imidazo[4,5-b]pyridin-5-yl)-N-(tetrahydro-2H-pyran-3-yl)pyrrolo[2,1-f][1,2,4]triazin-2-amine]	8
COC[C@@H](C)Nc1ncc2c(-c3cnc4nccn4c3)ccn2n1 [Compound 223, (R)-5-(Imidazo[1,2-a]pyrimidin-6-yl)-N-(1-methoxypropan-2-yl)pyrrolo[2,1-f][1,2,4]triazin-2-amine]	101
COCCO[C@H]1C[C@@H](Nc2ncc3c(-c4cnc5nccn5c4)ccn3n2)C1 [Compound 244, 5-(Imidazo[1,2-a]pyrimidin-6-yl)-N-(cis-3-(2-methoxyethoxy)cyclobutyl) pyrrolo[2,1-f] [1,2,4]triazin-2-amine]	5
Cc1nc2ccc(-c3ccn4nc(N[C@H]5C[C@](C)(O)C5)ncc34)nc2n1CC(F)F [Compound 1835, trans-3-((5-(3-(2,2-Difluoroethyl)-2-methyl-3H-imidazo[4,5-b]pyridin-5-yl)pyrrolo[2,1-f][1,2,4]triazin-2-yl)amino)-1-methylcyclobutan-1-ol]	3
Cc1nc2ccc(-c3ccn4nc(NC5CC(F)(F)C5)ncc34)nc2n1CC(F)F [Compound 1088, N-(3,3-Difluorocyclobutyl)-5-(3-(2,2-difluoroethyl)-2-methyl-3H-imidazo [4,5-b]pyridin-5-yl)pyrrolo[2,1-f][1,2,4]triazin-2-amine]	4
C[C@@H](Nc1ncc2c(-c3cnc4nccn4c3)ccn2n1)C(F)(F)F [Compound 219, (R)-5-(Imidazo[1,2-a]pyrimidin-6-yl)-N-(1,1,1-trifluoropropan-2-yl)pyrrolo [2,1-f][1,2,4]triazin-2-amine]	14
Cc1nc2ccc(-c3ccn4nc(N[C@H]5CN(C)C[C@@H]5F)ncc34)nc2n1CC(F)F [Compound 1901, 5-(3-(2,2-Difluoroethyl)-2-methyl-3H-imidazo[4,5-b]pyridin-5-yl)-N-((3S,4S)-4-fluoro-1-methylpyrrolidin-3-yl)pyrrolo [2,1-f] [1,2,4]triazin-2-amine]	4
COCCNc1ncc2c(-c3ccc4nccn4c3)ccn2n1 [Compound 9, 5-(Imidazo[1,2-a]pyridin-6-yl)-N-(2-methoxyethyl)pyrrolo[2,1-f][1,2,4] triazin-2-amine]	81
1-(4-((5-(1-(2,2-Difluoroethyl)-2-methyl-1H-imidazo[4,5-b]pyridin-6-yl)pyrrolo[2, 1-f] [1,2,4]triazin-2-yl)amino)piperidin- 1-yl)ethan-1 -one [Compound 1910]	4
CC(C)(F)CNc1ncc2c(-c3ccc4nccnc4c3)ccn2n1 [Compound 1352, N-(2-Fluoro-2-methylpropyl)-5-(quinoxalin-6-yl)pyrrolo[2,1-f][1,2,4]triazin-2-amine]	27
